Data set [1] can be described thus: FaSSIF solubility (HPLC). To be noted: positive control, range. Here is the method:
Compounds were first dispersed in freshly prepared FaSSIF (http://biorelevant.com/site_media/upload/documents/How_to_make_FaSSIF_FeSSIF_and_FaSSGF.pdf) buffer in 1 mg/mL respectively, and the standard samples were prepared by preparing 1 mg/mL of test compounds in DMSO. The compounds were then sufficient mixed by vortex mixer for 30 sec, and agitated at 25° C. using 300 rpm form 4 hour in thermo mixer. After incubation, the prepared samples were centrifuged at 10000 rpm for 10 min to remove the undissolved solid, the resulting supernatants were applied to HPLC.
S=Csmp=Cstd*(Asmp/Astd)*(Vstd/Vsmp)
Where C is the sample concentration in μg/mL, A is the peak area, and V is the injection volume.

Data set [2] has as its target PRMT5/MEP50 complex (Homo sapiens, UniProt O14744). Nature of the data set: Biochemical assay: PRMT5/MEP50 methylation of histone H2A with 3H-SAM, filter plate scintillation. To be noted: PRMT5/MEP50 5 nM, histone H2A 5 μM, SAM 1 μM. Here is the method:
Compounds were solubilized and 3-fold diluted in 100% DMSO. […] Standard reactions were performed in a total volume of 50 μl in assay buffer, with histone H2A (5 μM final) as substrate. To this was added the PRMT5/MEP50 complex diluted to provide a final assay concentration of 5 nM and the compounds were allowed to preincubate for 15 to 20 minutes at room temperature. The reaction was initiated by adding S-[3H-methyl]-adenosyl-L-methionine (PerkinElmer) to final concentration of 1 μM. Following a 60 minutes incubation at 30° C., the reaction was stopped by adding 100 μL of 20% TCA. Each reaction was spotted onto filter plate (MultiScreen FB Filter Plate, Millipore), and washed 5 times with PBS buffer, Scintillation fluid was added to the filter plate and read in a scintillation counter. IC50 values were determined by fitting the data to the standard 4 parameters with Hill Slope using GraphPad Prism software.

The nature of data set [3]: In vivo pharmacokinetics in rat, i.v. and p.o. To be noted: rat (SD, male, non-fasted), average, N=3. Here is the method:
In a rat (SD, male, non-fasted) non-crossover PK study, Example 47 was dosed at 1 mg/kg (DMA: 20% HPBCD=5:95, solution) via i.v. administration (N=3) and 1 mg/kg (0.5% Na CMC+0.5% Tween80, solution) via oral gauge (p.o.) (N=3).

Chain of PRMT5/MEP50 complex (O14744 whole entry, species assumed): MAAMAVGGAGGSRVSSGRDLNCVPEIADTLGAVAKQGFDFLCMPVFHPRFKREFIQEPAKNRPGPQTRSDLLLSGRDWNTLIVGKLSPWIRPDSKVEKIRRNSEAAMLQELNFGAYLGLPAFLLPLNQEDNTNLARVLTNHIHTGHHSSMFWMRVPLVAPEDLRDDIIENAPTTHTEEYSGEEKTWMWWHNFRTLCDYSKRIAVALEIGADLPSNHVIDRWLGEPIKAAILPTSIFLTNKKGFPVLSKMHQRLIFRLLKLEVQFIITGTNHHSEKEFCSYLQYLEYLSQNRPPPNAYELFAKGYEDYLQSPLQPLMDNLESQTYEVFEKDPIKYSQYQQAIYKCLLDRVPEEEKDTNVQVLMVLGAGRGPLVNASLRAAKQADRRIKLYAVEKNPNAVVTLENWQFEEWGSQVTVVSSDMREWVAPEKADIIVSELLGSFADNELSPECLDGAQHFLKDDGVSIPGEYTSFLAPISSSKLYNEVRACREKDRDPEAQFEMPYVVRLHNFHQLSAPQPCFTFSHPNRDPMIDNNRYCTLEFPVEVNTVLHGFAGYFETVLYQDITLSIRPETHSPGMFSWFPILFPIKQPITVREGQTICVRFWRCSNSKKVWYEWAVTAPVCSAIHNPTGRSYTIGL
Chain of PRMT5/MEP50 complex (Q9BQA1 whole entry partner, species assumed): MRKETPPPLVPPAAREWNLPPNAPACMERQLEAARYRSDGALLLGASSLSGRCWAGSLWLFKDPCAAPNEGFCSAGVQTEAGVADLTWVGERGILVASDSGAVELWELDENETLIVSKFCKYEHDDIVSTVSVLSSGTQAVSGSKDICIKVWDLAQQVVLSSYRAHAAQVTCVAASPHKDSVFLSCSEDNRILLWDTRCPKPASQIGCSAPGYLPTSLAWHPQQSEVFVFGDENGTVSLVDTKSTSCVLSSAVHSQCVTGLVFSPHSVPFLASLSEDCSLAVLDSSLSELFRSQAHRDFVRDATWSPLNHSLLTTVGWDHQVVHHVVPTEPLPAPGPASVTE

On to `CC(=O)CC(c1ccccc1)c1c(O)c2ccccc2oc1=O` (stereo not drawn) [Warfarin], for which, in data set [1], the “FaSSIF solubility (positive controls)” value was in the range of 10 to 25 µg/mL.

Broadly, the IC50 is the concentration at which inhibition is half-maximal. In turn, `C[C@@]1(O)[C@@H]([C@@H](O)c2ccc(Cl)c(Cl)c2)O[C@@H](n2ccc3c(N)ncnc32)[C@@H]1O` [Example 66, (2R,3S,4R,5R)-5-(4-amino-7H-pyrrolo[2,3-d]pyrimidin-7-yl)-2-((S)-(3,4-dichlorophenyl) (hydroxy)methyl)-3-methyltetrahydrofuran-3,4-diol] registered an IC50 in data set [2] of 707 nM.

On to `C[C@@]1(O)[C@@H]([C@H](O)c2ccc(Cl)c(Cl)c2)O[C@@H](n2ccc3c(N)ncnc32)[C@@H]1O` [Example 47, (2R,3S,4R,5R)-5-(4-amino-7H-pyrrolo[2,3-d]pyrimidin-7-yl)-2-((R)-(3,4-dichlorophenyl) (hydroxy)methyl)-3-methyltetrahydrofuran-3,4-diol], for which, in data set [3] (1 mg/kg i.v.), the T1/2 came out at 4.1 h, the Vss worked out at 3.1 L/kg and the blood clearance came out at 8.8 mL/min/kg. For the same molecule, the “dose normalized AUC” value in data set [3] (1 mg/kg p.o.) is 3246 ng·kg·h/mL/mg.

The record behind these values is patent US20220152072A1, “Selective Inhibitors Of Protein Arginine Methyltransferase 5 (PRMT5)” (Prelude Therapeutics, Incorporated, priority 2019, published 2022).
